Experimental data as given in patent US8557864B2, “Agent having neurotrophic factor-like activity” (Nagoya Industrial Science Research Institute, priority 2007, dated 2013).

system: MAP kinases; test: Measurement of activation of MAP kinases in cultured nerve cells (western immunoblotting); format: cell-based; conditions: fetal rat cerebral cortex nerve cells, compound 500 μg/ml, 30 minutes, relative to control
Experimental: Activation of MAP kinases was measured on respective compounds in Table 1 including the compound obtained in Production Example with western immunoblotting as follows. Nerve cells were dispersed from a cerebral cortex of a 17-day-old fetal rat and the nerve cells were cultured in a Dulbecco's modified eagle medium (DMEM) containing 5%; fetal bovine serum for 1 day. A culture solution was exchanged to a serum-free medium (B27 supplement added Neurobasal, Invitrogen Corporation), and the nerve cells were cultured in a culture petri dish coated with polyornithine at a density of 20,000 to 40,000 cells/cm^2. Three days later, each of the compounds in Table 1 was added thereto, and culture for 30 minutes was continued. Then, cells were recovered on ice with a solution of a Tris-HCL buffer as a base containing a phosphatase inhibitor. The protein concentration of the obtained cell extraction was determined using a BCA Protein Assay Kit (TAKARABIO INC.), a constant amount (3 μg for MAP kinase measurement, 5 μg for phosphorylated MAP kinase measurement) of the protein was electrophoresed with a polyacrylic amide gel. The protein was transcribed to a PVDF membrane from the gel after electrophoresis, and western immunoblotting was carried out using the primary antibodies: an anti-MAP kinase antibody (Cell Signaling Technology, Inc.) and an antiphosphorylated MAP kinase antibody (Cell Signaling Technology, Inc.), respectively. Subsequently, an enzyme activity was subjected to color development by being reacted with the secondary antibody: an alkaline phosphatase labeled anti-rabbit IgG antibody (Promega KK) to measure MAP kinases and phosphorylated MAP kinases. In addition, each compound was dissolved in 0.7% DMSO and adjusted to have a concentration of 500 μg/ml. A control was added with a phosphoric acid buffer containing 0.1% DMSO in the same amount as the compound.
The above obtained concentration measurement of the electrophoresis gel band was digitalized by calculating an intensity with Image J (BioArts International, Inc.). The numerical value of MAP kinases of each compound was divided by the numerical value of the control's MAP kinases, and the numerical value of phosphorylated MAP kinases of each compound was divided by the numerical value of the control's phosphorylated MAP kinases to find a ratio of the MAP kinases of each compound to the control and a ratio of the phosphorylated MAP kinases of the each compound to the control. Then, the obtained ratio of the phosphorylated MAP kinases to the control was divided by the obtained ratio of the MAP kinases to the control to find a ratio of the phosphorylated MAP kinases to the MAP kinases and graphs were formed and shown in FIGS. 1 to 3. Compound 1, compound 6, compound 11, compound 16, compound 21 and compound 36 in Table 1 were used from products made by Wako Pure Chemical Industries, Ltd.

With `CCCCCCC/C=C/C(=O)OCCCCCCCC` [Compound 53, trans-2-decenoic acid octyl ester] as the compound, how does the “ratio of phosphorylated MAP kinases to MAP kinases” value (“ratio of phosphorylated MAP kinases” below) read?
Its value is “twice or more”.

For `CCCCCCC/C=C/C(=O)OC1CCCCC1` [Compound 48, trans-2-decenoic acid cyclohexyl ester], which “ratio of phosphorylated MAP kinases” value is on record?
Its value is “twice or more”.

How did the “ratio of phosphorylated MAP kinases” value turn out when `CCCCCCC/C=C/C(=O)OC` [Compound 7, trans-2-decenoic acid methyl ester] was run?
Its value is “twice or more”.

Which “ratio of phosphorylated MAP kinases” value does the source give for `CCCCCCCCCC(=O)OCC` [Compound 3, decanoic acid ethyl ester] here?
Its value is “high activities”.

Which “ratio of phosphorylated MAP kinases” value does the source give for `CCCCCCC/C=C/C(=O)O` [Compound 6, trans-2-decenoic acid] here?
Its value is “high activities”.

With `C=CCCCCCCCC(=O)OC` [Compound 12, trans-9-decenoic acid methyl ester] as the compound, how does the “ratio of phosphorylated MAP kinases” value read?
Its value is “high activities”.

Which “ratio of phosphorylated MAP kinases” value does the source give for `CCOC(=O)/C=C(\C)CCC=C(C)C` [Compound 77, geranic acid ethyl ester] here?
Its value is “high activities”.

`C=CCCCCCCCCC(=O)OC` [Compound 22, trans-10-undecenoic acid methyl ester] was tested. Which “ratio of phosphorylated MAP kinases” value did it give?
The value was “high activities”.

With `CCCCCCCCCC(=O)OC` [Compound 2, decanoic acid methyl ester] as the compound, how does the “ratio of phosphorylated MAP kinases” value read?
The value was “high activities”.

With `CCOC(=O)CC(C)CCCC(C)C` (stereo not drawn) [Compound 78, 3,7-dimethyloctanoic acid ethyl ester] as the compound, how does the “ratio of phosphorylated MAP kinases” value read?
Its value is “high activities”.

With `CCCCCCC/C=C/C(=O)OC(C)C` [Compound 54, trans-2-decenoic acid isopropyl ester] as the compound, how does the “ratio of phosphorylated MAP kinases” value read?
The value was “twice or more”.

How did the “ratio of phosphorylated MAP kinases” value turn out when `C=CCCCCCCCCC(=O)OCC` [Compound 23, trans-10-undecenoic acid ethyl ester] was run?
Its value is “high activities”.

`C=CCCCCCCCC(=O)OCC` [Compound 13, trans-9-decenoic acid ethyl ester] was tested. Which “ratio of phosphorylated MAP kinases” value did it give?
Its value is “high activities”.

With `CCCCCCC/C=C/COC(=O)/C=C/CCCCCCC` [Compound 47, trans-2-decenoic acid-trans-2-decenyl ester] as the compound, how does the “ratio of phosphorylated MAP kinases” value read?
Its value is “twice or more”.

same assay, conditions: fetal rat cerebral cortex nerve cells, compound 500 μg/ml, 30 minutes, relative to control; listed as trans-2-decenic acid methyl ester

For `CCCCCCC/C=C/C(=O)OC` [Compound 7, trans-2-decenoic acid methyl ester], which “ratio of phosphorylated MAP kinases” value is on record?
Its value is 6 times.

system: mice under chronic mild stress; test: Tail suspension test comparing compound 8 and fluvoxamine after chronic mild stress; format: in vivo; conditions: Exp. 2 (1 week after stress); compound 8 500 μg/kg, fluvoxamine 1000 μg/kg intraperitoneally once per day
Experimental: 7-week-old male ddY strain mice fed in one cage for 4 mice were first subjected to forced swimming for 15 minutes in the same manner as stress in Example 2 (behavior test of mice under stress) (1) described in the paragraph [0063] in the specification. Then, stress for 1 week using 3 kinds of cages was regarded as 1 cycle, and the stress was applied for 3 cycles (3 weeks) and chronic mild stress (CMS) was applied. The compound 8 and fluvoxamine were administered to mice immediately after stress in Exp. 1, 1 week after stress in Exp. 2, and 2 weeks after stress in Exp. 3, respectively, and tail suspension tests were carried out on the respective test groups. In each test group, the compound 8 was adjusted in concentration so as to have each of the doses of […] and fluvoxamine was adjusted in concentration so as to have a dose of 1000 μg/kg, by dissolving in 0.1% DMSO, and each dose of the compound 8 and fluvoxamine were intraperitoneally injected to mice once per day from the time immediately after stress. Further, to 7-week-old male ddY strain mice fed in one cage for 4 mice without stress, the compound 8 and fluvoxamine were administered to carry out the tail suspension tests in the same manner as the stressed mice. FIG. 31 show the result. A significance test was performed in a Student's t-test (*). […] “DAEE” denotes the compound 8 and “Flu” denotes fluvoxamine.

For `COCCCC/C(=N\OCCN)c1ccc(C(F)(F)F)cc1` [fluvoxamine], which “effect on depressive symptom (immobility time)” value is on record?
Its value is “an effect could not be recognized”.

same assay, conditions: Exp. 3 (2 weeks after stress); fluvoxamine 1000 μg/kg intraperitoneally once per day

`COCCCC/C(=N\OCCN)c1ccc(C(F)(F)F)cc1` [fluvoxamine] was tested. Which “effect on depressive symptom (immobility time)” value did it give?
The value was “recognized only in Exp. 3”.

system: mice; test: Voluntary alternation behavior test (Y-maze test) of mice administered with trimethyltin; format: in vivo; conditions: TMT 2 mg/kg weight intraperitoneally
Experimental: The voluntary alternation behavior test (Y-maze test) is one kind of a behavior test using a Y-shaped maze constituted with three arms. First, a mouse is placed on the tip of one arm out of the three arms, letting the mouse freely explore in the maze over 8 minutes, and arms where the mouse transferred are recorded in order. Then, the number of times of transferring to each arm (total arm selection number (total arm entries)) and the number of sequentially selecting three different arms (number of alternation behavior (number of spontaneous behavior)) are counted.
Trimethyltin (hereinafter referred to as “TMT”) is an organic metal compound having neurotoxicity, and acute nerve cell death is cased particularly in granular nerve cells of the hippocampus dentate gyrus, which thus affects memory and learning abilities of a mouse.
The voluntary alternation tests (Y-maze tests) were performed on 1) test groups to which the compound 8 was singly administered and 2) test groups to which TMT and the compound 8 were administered. In the test groups to which the compound 8 was singly administered, the compound 8 was dissolved in 0.1% DMSO to adjust a concentration so as to have each of the doses of 100 and 500 μg/kg and intraperitoneally injected to 6 mice in every administration example each in a dose of 0.25 mL. In 0 μg/kg weight administration examples of controls, 0.25 mL of a phosphoric acid buffer containing 0.1% DMSO was intraperitoneally injected in each time. The voluntary alternation tests (Y-maze tests) were performed on each of the administration groups after the elapse of 2 hours from intraperitoneal administration. In the test group in which TMT and the compound 8 were administered, TMT (2 mg/kg weight) was intraperitoneally administered to a mouse, and the compound 8 was intraperitoneally administered in the same manner as the test groups in which the compound 8 was singly administered after 2 days have passed, and the voluntary alternation test (Y-maze test) was performed after the elapse of 2 hours. FIG. 32 show the results. Significance tests were performed in a Turkey's test (*, ##) and a Student's t-test (++). “DAEE” denotes the compound 8.

For `[CH3][Sn+]([CH3])[CH3]` [TMT, Trimethyltin, reference compound], which “voluntary alternation behavior after TMT treatment” value is on record?
Its value is “significantly decreased”.
